# Laboratory results published in patent US20160089352A1, “CELL MEMBRANE TRANSPORT PROMOTER FOR SELECTIVE 5-HT1A SEROTONIN RECEPTORS” (NISHIZAKI BIOINFORMATION RESEARCH INSTITUTE, priority 2013, published 2016).
# Assays:
# [1] = test system: 5-HT1A serotonin receptor; assay: Analysis of 5-HT receptor trafficking in rat hippocampus and hypothalamus sections (Western blotting of cellular membrane and cytoplasm fractions); format: cell-based; settings: DCP-LA 100 nM
# [2] = test system: mouse under a restraint stress; assay: Forced swimming test after restraint stress (depression model); format: in vivo; settings: restraint-stressed mouse, 0.5, 0.75, 1.0, 5.0 mg/kg orally once per day, total 11 days; FIG. 3
# Description: At present, in the study of depression using the behavior of an experiment animal, the efficacy of antidepressant and reaction to stress, which are the both sides of depression, are mainly utilized. In a depression model, a method for inducing depression in an animal by imposing a stress such as solitude, electric shock, forced immersion in water, peripheral environment, temperature change and the like is mainly used. In this Experimental Example, a restraint stress animal model was used. A symptom corresponding to depression was induced by loading a stress by enclosing an experiment animal in a narrow space inhibiting movement, and whether an antidepressive effect was observed when a test compound was administered was examined. Male C57BL/6J mouse at 8-week-old was purchased from Japan SLC Inc. (Shizuoka. Japan). The mouse was enclosed in a 11.5 cm plastic cylinder (diameter 2.7 cm) for 3 hr per day, which was performed for 4 consecutive days to impart a stress.
# A forced swimming test is a behavioral test used for screening for an antidepressive effect of a compound. Also in this Experimental Example, a forced swimming test was performed according to a previous report after a restraint stress (Porsolt R D. Le Pichon M, Jalfre M. Depression: a new animal model sensitive, to antidepressant treatments. Nature 1977; 266:730-732.). […]
# [3] = test system: 5-HT1A serotonin receptor; assay: 5-HT1A serotonin receptor on cellular membrane in hippocampus and hypothalamus of restraint-stressed mouse after forced swimming test (Western blotting); format: in vivo; settings: 1 mg/kg orally once per day, total 11 days, hippocampus, hypothalamus, FIG. 4
# GSK-3β = assay: Phosphorylation of GSK-3β at Ser9 in hypothalamus of mouse under or not under restraint stress (Western blotting); format: in vivo; settings: total 11 days, FIG. 6
structure (smiles),measurement,setting,value
"CCCCCC1CC1CC1CC1CCCCCCCC(=O)O (stereo not drawn) [DCP-LA, 8-[2-(2-Pentyl-cyclopropylmethyl)-cyclopropyl]-octanoic acid]",expression of 5-HT1A serotonin receptor on the cellular membrane (ratio of cellular membrane to whole cells),"[1]; 20 min, rat hippocampus and hypothalamus sections, compared with 5-HT2A serotonin receptor, FIG. 1",selectively increased
same,promoting action on cellular membrane trafficking of 5-HT1A serotonin receptor in the presence of inhibitors,"[1]; rat hypothalamus section, GF109203X 100 nM, BoTX-A 0.1 U/ml, KN-93 3 μM, FIG. 2",significantly suppressed by BoTX and KN
same,immobility time in forced swimming test,[2],immobility time decreasing effect in a dose-dependent manner
same,stress-induced decrease in 5-HT1A serotonin receptor on the cellular membrane,[3],recovered
same,phosphorylation of GSK-3β (Ser9),"GSK-3β; irrespective of the presence or absence of a restraint stress, mouse hypothalamus, 1 mg/kg orally",promote phosphorylation
same,stress-induced suppression of phosphorylation of GSK-3β (Ser9),"GSK-3β; mouse under restraint stress, hypothalamus, 1 mg/kg orally once per day",improves suppression of the phosphorylation
